Patent publication US8202868B2, “4-piperazinyl-pyrimidine compounds suitable for treating disorders that respond to modulation of the dopamine D3 receptor” (Abbott GmbH & Co. KG, priority 2004, dated 2012)
Structures can show the parent of a compound that is named as a salt. Where two headings read alike, the source gives them in different places.

Experiments:
[1] = biological target: T1, human dopamine D3 receptors (Homo sapiens, UniProt P35462); test: Dopamine D3 receptor binding, [125I]-iodosulpride displacement; conditions: for Ki: membranes of HEK-293 cells, 0.1 nM [125I]-iodosulpride, 25° C., 60 minutes; for Ki(D2)/Ki(D3): selectivity ratio of receptor binding constants
T1 construct: expressed in transfected cells; host or cells: HEK-293
T1 sequence (P35462 whole entry): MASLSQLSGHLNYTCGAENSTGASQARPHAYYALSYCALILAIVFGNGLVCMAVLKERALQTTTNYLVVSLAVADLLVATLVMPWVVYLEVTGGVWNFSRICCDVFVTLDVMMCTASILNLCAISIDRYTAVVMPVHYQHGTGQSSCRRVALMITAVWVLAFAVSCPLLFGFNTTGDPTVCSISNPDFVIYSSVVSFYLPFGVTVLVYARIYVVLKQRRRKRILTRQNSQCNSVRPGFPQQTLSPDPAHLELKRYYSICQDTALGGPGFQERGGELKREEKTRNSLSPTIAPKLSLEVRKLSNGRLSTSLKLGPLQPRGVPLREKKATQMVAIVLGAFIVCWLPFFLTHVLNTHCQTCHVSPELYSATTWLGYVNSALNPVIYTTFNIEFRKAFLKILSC
Method: (§1) The substance to be tested was either dissolved in methanol/Chremophor® (BASF-AG) or in dimethyl sulfoxide and then diluted with water to the desired concentration.
(§2) Each assay mixture was run in triplicate.
The incubation buffer contained 50 mM tris, 120 mM NaCl, 5 mM KCl, 2 mM CaCl2, 2 mM MgCl2 and 0.1% bovine serum albumin, 10 μM quinolone and 0.1% ascorbic acid (prepared fresh daily). The buffer was adjusted to pH 7.4 with HCl.
(§3) After having been incubated at 25° C. for 60 minutes, the assay mixtures were filtered through a Whatman GF/B glass fiber filter under vacuum using a cell collecting device. The filters were transferred to scintillation viols using a filter transfer system. After 4 ml of Ultima Gold® (Packard) have been added, the samples were shaken for one hour and the radioactivity was then counted in a Beta-Counter (Packard, Tricarb 2000 or 2200CA). The cpm values were converted into dpm using a standard quench series and the program belonging to the instrument.
(§4) The inhibition curves were analyzed by means of iterative nonlinear regression analysis using the Statistical Analysis System (SAS) which is similar to the “LIGAND” program described by Munson and Rodbard.

[2] = biological target: T2, human dopamine D2L receptors (long isoform) (Homo sapiens, UniProt P14416); test: Dopamine D2L receptor binding, [125I] iodospiperone displacement
T2 construct: expressed in transfected cells; host or cells: HEK-293
T2 sequence (P14416 whole entry, canonical isoform): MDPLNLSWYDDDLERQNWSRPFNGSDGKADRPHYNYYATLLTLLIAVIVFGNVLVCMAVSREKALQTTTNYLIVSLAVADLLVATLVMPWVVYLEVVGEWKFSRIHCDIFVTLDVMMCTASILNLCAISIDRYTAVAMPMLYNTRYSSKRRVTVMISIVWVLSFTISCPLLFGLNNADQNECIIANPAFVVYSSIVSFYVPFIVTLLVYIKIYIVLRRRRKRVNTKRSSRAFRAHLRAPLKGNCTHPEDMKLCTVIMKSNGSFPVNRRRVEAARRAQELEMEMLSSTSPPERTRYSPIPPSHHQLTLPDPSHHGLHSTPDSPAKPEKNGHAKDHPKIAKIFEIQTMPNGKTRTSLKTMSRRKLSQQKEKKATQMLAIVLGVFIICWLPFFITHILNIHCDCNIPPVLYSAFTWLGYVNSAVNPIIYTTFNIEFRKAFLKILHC
Method: as §1, §2
The incubation buffer contained 50 mM tris, 120 mM NaCl, 5 mM KCl, 2 mM CaCl2, 2 mM MgCl2 and 0.1% bovine serum albumin. The buffer was adjusted to pH 7.4 with HCl.
as §3, §4

[3] = membranes of HEK-293 cells, 0.01 nM [125I] iodospiperone, 25° C., 60 minutes, read-out: Ki(D2)

| Compound | Ki [1] [nM] | Ki(D2)/Ki(D3) [1] | Ki [2, 3] [nM] | Ki [2] [nM] |
| --- | --- | --- | --- | --- |
| 2-tert-Butyl-4-cyclobutyl-6-{4-[3-(1-methyl-1H-tetrazol-5-ylsulfanyl)-propyl]-piperazin-1-yl}-pyrimidine [Example 9] | 4.1 | 106 | 432 | – |
| CC(C)(C)c1nc(C2CCC2)cc(N2CCN(CCCSc3nncs3)CC2)n1 [Example 1, 2-tert-Butyl-4-cyclobutyl-6-{4-[3-([1,3,4]thiadiazol-2-ylsulfanyl)-pronyl]-piperazin-1-yl}-pyrimidine] | 0.9 | 54 | – | 49 |
| Cc1nnc(SCCCN2CCN(c3cc(C4CCC4)nc(C(C)(C)C)n3)CC2)s1.Cl [Example 2, 2-tert-Butyl-4-cyclobutyl-6-{4-[3-(5-methyl-[1,3,4]thiadiazol-2-ylsulfanyl)-propyl]-piperazin-1-yl}-pyrimidine hydrochloride] | 1.4 | 96 | 135 | – |
| CC(C)(C)c1nc(C2CCC2)cc(N2CCN(CCCSc3ncccn3)CC2)n1.Cl [Example 4, 2-tert-Butyl-4-cyclobutyl-6-{4-[3-(pyrimidin-2-ylsulfanyl)-propyl]-piperazin-1-yl}-pyrimidine hydrochloride] | 0.9 | 127 | 113 | – |
| CC(C)(C)c1nc(C2CCC2)cc(N2CCN(CCCCNC(=O)c3ccc(F)cc3)CC2)n1.Cl [Example 10, N-{4-[4-(2-tert-Butyl-6-cyclobutyl-pyrimidin-4-yl)-piperazin-1-yl]-butyl}-4-fluoro-benzamide hydrochloride] | 0.5 | 163 | 87 | – |
| CC(C)(C)c1nc(C2CCC2)cc(N2CCN(CCCCNC(=O)c3ccncc3)CC2)n1.Cl [Example 11, N-{4-[4-(2-tert-Butyl-6-cyclobutyl-pyrimidin-4-yl)-piperazin-1-yl]-butyl}-isonicotinamide hydrochloride] | 0.9 | 150 | 137 | – |
| CC(C)(C)c1nc(C2CCC2)cc(N2CCN(CCCCNC(=O)c3cccnc3)CC2)n1 [Example 12, N-{4-[4-(2-tert-Butyl-6-cyclobutyl-pyrimidin-4-yl)-piperazin-1-yl]-butyl}-nicotinamide] | 1 | 121 | 115 | – |
| CC(C)(C)c1nc(C2CCC2)cc(N2CCN(CCCOc3ccnc(O)n3)CC2)n1 [Example 24, 4-{3-[4-(2-tert-Butyl-6-cyclobutyl-pyrimidin-4-yl)-piperazin-1-yl]-propoxy}-pyrimidin-2-ol] | 1.2 | 93 | 112 | – |
| CC(C)(C)c1nc(C2CCC2)cc(N2CCN(CCCOc3nccc(O)n3)CC2)n1 [Example 26, 2-{3-[4-(2-tert-Butyl-6-cyclobutyl-pyrimidin-4-yl)-piperazin-1-yl]-propoxy}-pyrimidin-4-ol] | 4.8 | 70 | 337 | – |
| CC(C)(C)c1nc(C2CCC2)cc(N2CCN(CCCOc3ncccn3)CC2)n1.Cl [Example 27, 2-tert-Butyl-4-cyclobutyl-6-{4-[3-(pyrimidin-2-yloxy)-propyl]-piperazin-1-yl}-pyrimidine hydrochloride] | 2.1 | 107 | 222 | – |
| C[C@@H](COc1ncccn1)CN1CCN(c2cc(C3CCC3)nc(C(C)(C)C)n2)CC1.Cl [Example 28, (R)-2-tert-Butyl-4-cyclobutyl-6-{4-[2-methyl-3-(pyrimidin-2-yloxy)-propyl]-piperazin-1-yl}-pyrimidine hydrochloride] | 3.8 | 78 | 296 | – |
| C[C@@H](COc1ccnc(O)n1)CN1CCN(c2cc(C3CCC3)nc(C(C)(C)C)n2)CC1 [Example 31, (R)-4-{3-[4-(2-tert-Butyl-6-cyclobutyl-pyrimidin-4-yl)-piperazin-1-yl]-2-methyl-propoxy}-pyrimidin-2-ol] | 2 | 72 | 143 | – |
| CC(C)(C)c1nc(C2CCC2)cc(N2CCN(CCCCc3nccc(O)n3)CC2)n1 [Example 34, 2-{4-[4-(2-tert-Butyl-6-cyclobutyl-pyrimidin-4-yl)-piperazin-1-yl]-butyl}-pyrimidin-4-ol] | 1.1 | 71 | 77 | – |
| Cl.Cn1nnnc1SCCCN1CCN(c2cc(C3CC3)nc(C(C)(C)C)n2)CC1 [Example 35, 2-tert-Butyl-4-cyclopropyl-6-{4-[3-(1-methyl-1H-tetrazol-5-ylsulfanyl)-propyl]-piperazin-1-yl}-pyrimidine hydrochloride] | 3.8 | 154 | 587 | – |
| CC(C)(C)c1nc(C2CC2)cc(N2CCN(CCCOc3nccc(O)n3)CC2)n1 [Example 37, 2-{3-[4-(2-tert-Butyl-6-cyclopropyl-pyrimidin-4-yl)-piperazin-1-yl]-propoxy}-pyrimidin-4-ol] | 7.1 | 51 | 359 | – |
| Cn1cnnc1SCCCN1CCN(c2cc(C3CCC3)nc(C(C)(C)C)n2)CC1 [Example 41, 2-tert-Butyl-4-{4-[3-(4-methyl-4H-[1,2,4]triazol-3-ylsulfanyl)-propyl]-piperazin-1-yl}-6-cyclobutylpyrimidine] | 1.3 | 314 | 405 | – |
| Cn1c(SCCCN2CCN(c3cc(C4CCC4)nc(C(C)(C)C)n3)CC2)nnc1C(F)(F)F [Example 42, 2-tert-Butyl-4-{4-[3-(4-methyl-5-trifluoromethyl-4H-[1,2,4]triazol-3-ylsulfanyl)-propyl]-piperazin-1-yl}-6-cyclobutyl-pyrimidine] | 2 | 203 | 405 | – |
| Cc1nnc(SCCCN2CCN(c3cc(C4CCC4)nc(C(C)(C)C)n3)CC2)n1C.O=C(O)/C=C/C(=O)O [Example 43, 2-tert-Butyl-4-{4-[3-(4-methyl-5-methyl-4H-[1,2,4]triazol-3-ylsulfanyl)-propyl]-piperazin-1-yl}-6-cyclobutyl-pyrimidine fumarate] | 1.5 | 210 | 305 | – |
| Cn1c(SCCCN2CCN(c3cc(C4CCC4)nc(C(C)(C)C)n3)CC2)nnc1C1CC1.O=C(O)/C=C/C(=O)O [Example 44, 2-tert-Butyl-4-{4-[3-(4-methyl-5-cyclopropyl-4H-[1,2,4]triazol-3-ylsulfanyl)-propyl]-piperazin-1-yl}-6-cyclobutyl-pyrimidine fumarate] | 0.6 | 250 | 142 | – |
| Cc1nnc(SCCCN2CCN(c3cc(C4CC4)nc(C(C)(C)C)n3)CC2)n1C.Cl [Example 45, 2-tert-Butyl-4-{4-[3-(4-methyl-5-methyl-4H-[1,2,4]triazol-3-ylsulfanyl)-propyl]-piperazin-1-yl}-6-cyclopropyl-pyrimidine hydrochloride] | 1.2 | 234 | 272 | – |
| Cl.Cn1c(SCCCN2CCN(c3cc(C4CC4)nc(C(C)(C)C)n3)CC2)nnc1C(F)(F)F [Example 47, 2-tert-Butyl-4-{4-[3-(4-methyl-5-trifluoromethyl-4H-[1,2,4]triazol-3-ylsulfanyl)-propyl]-piperazin-1-yl}-6-cyclopropyl-pyrimidine hydrochloride] | 1.9 | 253 | 484 | – |
| C[C@@H](COc1nccc(O)n1)CN1CCN(c2cc(C3CCC3)nc(C(C)(C)C)n2)CC1 [Example 52] | 11.2 | 82 | 926 | – |
| Cn1cnnc1SCCCN1CCN(c2cc(C3(C)CC3)nc(C(C)(C)C)n2)CC1 [Example 53, 2-tert-butyl-4-{4-[3-(4-methyl-4H-[1,2,4]triazol-3-ylsulfanyl)-propyl]-piperazin-1-yl}-6-(1-methyl)cyclopropyl-pyrimidine] | 1.2 | 50 | 58 | – |
| Cc1nnc(SCCCN2CCN(c3cc(C4(C)CC4)nc(C(C)(C)C)n3)CC2)n1C [Example 54, 2-tert-butyl-4-{4-[3-(4-methyl-5-methyl-4H-[1,2,4]triazol-3-ylsulfanyl)-propyl]piperazin-1-yl}-6-(1-methyl)cyclopropyl-pyrimidine] | 0.64 | 124 | 80 | – |
| Cn1c(SCCCN2CCN(c3cc(C4CC4)nc(C(C)(C)C)n3)CC2)nnc1-c1cnccn1 [Example 56, 2-tert-butyl-4-{4-[3-(5-pyrazin-4-methyl-4H-[1,2,4]triazol-3-ylsulfanyl)-propyl]-piperazin-1-yl}6-cyclopropyl-pyrimidine hydrochloride] | 0.47 | 109 | 51.2 | – |
| Cn1c(SCCCN2CCN(c3cc(C(C)(C)C)nc(C4CC4)n3)CC2)nnc1-c1cnccn1 [Example 57, 2-cyclopropyl-4-{4-[3-(5-pyrazin-4-methyl-4H-[1,2,4]triazol-3-ylsulfanyl)-propyl]-piperazin-1-yl}6-tert-butyl-pyrimidine hydrochloride] | 5.47 | 296 | 1610 | – |
